{"source": "patent US20230035763A1", "about": "“METHODS OF TREATING CANCER USING TUBULIN BINDING AGENTS” (BeyondSpring Pharnaceuticals, Inc., priority 2018, published 2023)", "key": {"[1]": {"system": "CAL-51, HS578T, JIMT-1, MCF10A, MX1", "test": "CellTiter-Blue cell viability assay, breast cell lines (Active group)", "assay_type": "cell-based, human", "set-up": "key: Active: active (IC70<1 µM); Inactive: inactive (IC70>1 µM, and usually >10 µM)", "conditions": "Breast: CAL-51, HS578T, IC70 class, 24 h treatment + 48 h compound-free", "protocol": "(§1) Working stock solution of the test compounds (Plinabulin, Docetaxel and Paclitaxel) were prepared in DMSO at a concentration of 3.14 (Plinabulin) or 3.3 mM (Docetaxel and Paclitaxel), and small aliquots were stored at −20° C. On each day of an experiment, a frozen aliquot of the working stock solutions was thawed and stored at room temperature prior to and during treatment. All liquid handling steps were done by the Tecan Freedom EVO 200 platform. First, serial half-log dilutions of the DMSO working stock solution were made in DMSO. The DMSO dilutions were then diluted 1:22 into cell culture medium in an intermediate dilution plate. Finally, 10 μl taken from the intermediate dilution plate was transferred to 140 μl/well of the final assay plate. […] Briefly, cells were harvested from exponential phase cultures, counted and plated in 96-well flat-bottom microtiter plates at a cell density of 4,000 to 60,000 cells/well dependent on the cell line's growth rate. […] After the initial application of the compounds for 24 hours, the compound-containing media was exchanged to media without compounds and incubation was continued for a further 48 hours until read-out. […] Following incubation with CellTiter-Blue® reagent for up to four hours, fluorescence (FU) was measured by using the Enspire Multimode Plate Reader (excitation λ=570 nm, emission λ=600 nm). […]"}, "[2]": {"system": "A-172, SF-539, SNB-78, U-251, U-87MG", "test": "CellTiter-Blue cell viability assay, CNS cell lines (Active group)", "assay_type": "cell-based, human", "set-up": "key: Active: active (IC70<1 µM); Inactive: inactive (IC70>1 µM, and usually >10 µM)", "conditions": "CNS: A-172, SF-539, SNB-78, U-251, U-87MG; IC70 class, 24 h treatment + 48 h compound-free", "protocol": "as §1"}, "PC-3": {"system": "PC-3", "test": "CellTiter-Blue cell viability assay, prostate cell line (Inactive group)", "assay_type": "cell-based, human", "set-up": "key: Active: active (IC70<1 µM); Inactive: inactive (IC70>1 µM, and usually >10 µM)", "conditions": "Prostate: PC-3; IC70 class, 24 h treatment + 48 h compound-free", "protocol": "as §1"}, "[3]": {"system": "MAXFTN401, BT-474, HCC-1937, MCF7, MDA-MB-231", "test": "CellTiter-Blue cell viability assay, breast cell lines (Inactive group)", "assay_type": "cell-based, human", "set-up": "key: Active: active (IC70<1 µM); Inactive: inactive (IC70>1 µM, and usually >10 µM)", "conditions": "Breast: MAXFTN401, BT-474, HCC-1937, MCF7, MDA-MB-231; IC70 class, 24 h treatment + 48 h compound-free", "protocol": "as §1"}, "[4]": {"system": "LXFA289, LXFA526, LXFA629, LXFA983, A549, HOP-62, NCI-H322M, NCI-H226, SK-MES-1, A427, NCI-H1299, H2171, SCLC-21H", "test": "CellTiter-Blue cell viability assay, lung cell lines (Inactive group)", "assay_type": "cell-based, human", "set-up": "key: Active: active (IC70<1 µM); Inactive: inactive (IC70>1 µM, and usually >10 µM)", "conditions": "Lung: LXFA289, LXFA526, LXFA629, LXFA983, A549, HOP-62, NCI-H322M, IC70 class, 24 h treatment + 48 h compound-free", "protocol": "as §1"}, "[5]": {"system": "22Rv1, DU-145, LNCaP, PC-3M", "test": "CellTiter-Blue cell viability assay, prostate cell lines (Active group)", "assay_type": "cell-based, human", "set-up": "key: Active: active (IC70<1 µM); Inactive: inactive (IC70>1 µM, and usually >10 µM)", "conditions": "Prostate: 22Rv1, DU-145, LNCaP, IC70 class, 24 h treatment + 48 h compound-free", "protocol": "as §1"}, "OVXF899, OVXF1023": {"system": "OVXF899, OVXF1023", "test": "CellTiter-Blue cell viability assay, ovarian cell lines (Inactive group)", "assay_type": "cell-based, human", "set-up": "key: Active: active (IC70<1 µM); Inactive: inactive (IC70>1 µM, and usually >10 µM)", "conditions": "IC70 class, 24 h treatment + 48 h compound-free", "protocol": "as §1"}, "[6]": {"system": "43 human cancer cell lines (breast, lung, prostate, ovarian or CNS)", "test": "CellTiter-Blue cell viability assay, IC70, panel of human cancer cell lines", "assay_type": "cell-based", "conditions": "24 h treatment, then 48 h without plinabulin", "text": "Plinabulin is a tubulin targeted agent that binds near the colchicine site in β-tubulin and is being tested in a Phase 3 clinical study for the treatment of non-small cell lung cancer. The colchicine site is distinct from the binding site of taxanes (e.g. Paclitaxel and docetaxel), and binding site and other differences between tubulin targeted agents are often associated with differing effects on biological functions, disease outcomes and safety profiles. Additional indications are being considered for plinabulin so a model for selecting especially responsive patients would be of significant value. As a first step towards building this model, the in vitro activity of Plinabulin against 43 human cancer cell lines (breast, lung, prostate, ovarian or CNS), previously characterized for mRNA expression with the Affymetrix HGU133 Plus 2.0 array, was evaluated. Although screening for in vitro anticancer activity is typically performed with constant treatment of the agent for 48-72 hours, cells were treated for only 24 hours with plinabulin and then cultured for another 48 hours without plinabulin.\nTypically anticancer activity is judged at the 50% effect level (50% reduction in viable tumor cells), but viable cell concentration are quantified here with a Cell Titer-Blue Assay to find the concentration causing a 70% reduction in the quantity of viable tumor cells (IC70). […]"}, "[7]": {"system": "A2780, EFO-21, EFO-27, OVCAR3", "test": "CellTiter-Blue cell viability assay, ovarian cell lines (Active group)", "assay_type": "cell-based, human", "set-up": "key: Active: active (IC70<1 µM); Inactive: inactive (IC70>1 µM, and usually >10 µM)", "conditions": "Ovarian: A2780, EFO-21, EFO-27, OVCAR3; IC70 class, 24 h treatment + 48 h compound-free", "protocol": "as §1"}, "[8]": {"system": "Calu-, LXFL1121, NCI-H460", "test": "CellTiter-Blue cell viability assay, lung cell lines (Active group)", "assay_type": "cell-based, human", "set-up": "key: Active: active (IC70<1 µM); Inactive: inactive (IC70>1 µM, and usually >10 µM)", "conditions": "IC70 class, 24 h treatment + 48 h compound-free", "protocol": "as §1"}}}
{"smiles": "CC(C)(C)c1[nH]cnc1/C=c1\\[nH]c(=O)/c(=C/c2ccccc2)[nH]c1=O", "note": "[Plinabulin]", "values": [{"measurement": "Plinabulin Activity", "setting": "[1]", "value": "Active"}, {"measurement": "Plinabulin Activity", "setting": "[2]", "value": "Active"}, {"measurement": "Plinabulin Activity", "setting": "PC-3", "value": "Inactive"}, {"measurement": "Plinabulin Activity", "setting": "[3]", "value": "Inactive"}, {"measurement": "Plinabulin Activity", "setting": "[4]", "value": "Inactive"}, {"measurement": "Plinabulin Activity", "setting": "[5]", "value": "Active"}, {"measurement": "Plinabulin Activity", "setting": "OVXF899, OVXF1023", "value": "Inactive"}, {"measurement": "IC70 (concentration causing a 70% reduction in the quantity of viable tumor cells)", "setting": "[6]; 21 cell lines of the Active category", "value": "< 1.0", "unit": "µM"}, {"measurement": "IC70 (concentration causing a 70% reduction in the quantity of viable tumor cells)", "setting": "[6]; 91% of the cell lines of the Inactive category", "value": "> 9.5", "unit": "µM"}, {"measurement": "Plinabulin Activity", "setting": "[7]", "value": "Active"}, {"measurement": "Plinabulin Activity", "setting": "[8]", "value": "Active"}]}
